Reference: patent US8853246B2 (Dow AgroSciences LLC, priority 2009, dated 2014)
Like-named read-outs stand apart in the source and are kept apart here.

Assays:
[1] = test system: Sweetpotato Whitefly-Crawler (Bemisia Tabaci); test: Insecticidal test for sweetpotato whitefly-crawler in foliar spray assay (col. BEMITA); type: in vivo; settings: for pest or weed control at 200 ppm: Bemisia tabaci, read-out: BEMITA 200 ppm (Corrected % Control, rating)
Procedure, shortened: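 Percent control, Abbott-corrected against diluent-sprayed plants, from microscope counts of live nymphs 8-9 days after treatment. Test solution at 200 ppm in 0.025% aqueous Tween 20 applied to both leaf sides of egg-infested cotton after a 5-6 day hatch period (82° F, 50% RH).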

[2] = test system: Green Peach Aphid (Myzus Persicae); test: Insecticidal test for green peach aphid in foliar spray assay (col. MYZUPE); type: in vivo; settings: for pest or weed control at 200 ppm: Myzus persicae, 72 h, read-out: MYZUPE 200 ppm (Corrected % Control, rating)
Procedure, shortened: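 Corrected % control derives from microscope counts of live aphids per plant, treated against diluent-only checks, 3 days after foliar spraying at ~25 °C and 40% RH. Test solution was 200 ppm in 0.025% aqueous Tween 20, applied to both leaf sides of infested cabbage seedlings, four pots each.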

Compound	pest or weed control at 200 ppm ([1]; sweetpotato whitefly-crawler) [%]	pest or weed control at 200 ppm ([2]; green peach aphid) [%]	pest or weed control at 200 ppm ([1]; Abbott's correction formula) [%]	pest or weed control at 200 ppm ([2]; Abbott's correction formula) [%]	other results
CSCC(C)C(=O)Nc1sc(-c2cccnc2)nc1C(F)(F)F (stereo not shown) [Compound 134]	< 80	80 to 100			
Cc1nc(-c2cccnc2)sc1N(C)C(=O)[C@H](CSCc1ccccc1)NC(=O)OC(C)(C)C [Compound 290]	< 80	< 80			
COc1cncc(-c2nc(C)c(N(C(=O)OC(C)(C)C)C(=O)C(C)CSC)s2)c1 (stereo not shown) [Compound 176]	< 80	< 80			
Cc1nc(-c2cccnc2)sc1N(C)C(=O)C(C)N(C)C(=O)OC(C)(C)C (stereo not shown) [Compound 294]	< 80	< 80			
Cc1nc(-c2cccnc2)sc1N(C)C(=O)CC[S+](C)[O-] (stereo not shown) [Compound 90]	80 to 100	80 to 100			
CCN(C(=O)c1cccs1)c1sc(-c2cccnc2)nc1Cl [Compound 554]			< 80	< 80	
COCCN(C(=O)OC(C)(C)C)c1sc(-c2cccnc2)nc1C [Compound 460]			< 80	< 80	
CN(C(=O)c1ccoc1)c1sc(-c2cccnc2)nc1Cl [Compound 401]					BEMITA 200 ppm (Corrected % Control, rating) ([1]; sweetpotato whitefly-crawler): A (80-100); MYZUPE 200 ppm (Corrected % Control, rating) ([2]; green peach aphid): A (80-100)
Cc1nc(-c2cccnc2)sc1N(C)C(=O)c1cccc(SC(F)F)c1 [Compound 397]	80 to 100	80 to 100			
CCCCS/C(=N\CC)N(C)c1sc(-c2cccnc2)nc1C [Compound 472]			< 80	80 to 100	
CSCC(Cc1ccccc1)C(=O)N(C)c1sc(-c2cccnc2)nc1C (stereo not shown) [Compound 330]	< 80	< 80			
Cc1nc(-c2cccnc2)sc1N(C)C(=O)C(CC(C)C)NC(=O)OC(C)(C)C (stereo not shown) [Compound 283]	< 80	< 80			
Cc1nc(-c2cccnc2)sc1N(C)C(=O)OCC(F)(F)F [Compound 486]			< 80	80 to 100	
COCCOC(=O)N(C)c1sc(-c2cccnc2)nc1C [Compound 485]			80 to 100	80 to 100	
CCN(C(=O)c1c(F)cccc1F)c1sc(-c2cccnc2)nc1Cl [Compound 563]			< 80	80 to 100	
Cc1nc(-c2cncc(F)c2)sc1N(C)C(=O)C(C)CS(=O)(Cc1ccc(Cl)nc1)=NC#N (stereo not shown) [Compound 167]	80 to 100	< 80			
CCN(C(=O)CCS(C)(=O)=O)c1sc(-c2cccnc2)nc1Cl [Compound 315]	80 to 100	80 to 100			
CCN(C(=O)C(C)C(C)SC)c1sc(-c2cccnc2)nc1Cl (stereo not shown) [Compound 538]			80 to 100	80 to 100	
CCN(C(=O)OC(C)(C)C)c1sc(-c2cncc(F)c2)nc1Br [Compound 303]	80 to 100	< 80			

Compound	pest or weed control at 200 ppm ([1]; sweetpotato whitefly-crawler) [%]	pest or weed control at 200 ppm ([2]; green peach aphid) [%]	pest or weed control at 200 ppm ([1]; Abbott's correction formula) [%]	pest or weed control at 200 ppm ([2]; Abbott's correction formula) [%]	other results
CCC(C[S+](C)[O-])C(=O)N(CC)c1sc(-c2cccnc2)nc1Cl (stereo not shown) [Compound 559]			80 to 100	80 to 100	
CCc1nc(-c2cccnc2)sc1N(C)C(=O)C(C)CSC (stereo not shown) [Compound 50]	80 to 100	80 to 100			
CCCCC(=O)N(CC)c1sc(-c2cccnc2)nc1Cl [Compound 530]			80 to 100	80 to 100	
CN(C(=O)C1CC[S+]([O-])C1)c1sc(-c2cccnc2)nc1Cl (stereo not shown) [Compound 523]			< 80	80 to 100	
CCN(C(=O)CCSC)c1sc(-c2cccnc2)nc1C [Compound 236]	80 to 100	80 to 100			
COCCN(C(=O)C(C)CSC)c1sc(-c2cccnc2)nc1C (stereo not shown) [Compound 465]			< 80	80 to 100	
CCN(C(=O)Cc1cccs1)c1sc(-c2cccnc2)nc1Cl [Compound 550]			80 to 100	< 80	
CCN(C(=O)CCSCc1ccccc1)c1sc(-c2cccnc2)nc1C [Compound 320]	< 80	80 to 100			
CCN(C(=O)CC[S+](C)[O-])c1sc(-c2cccnc2)nc1Cl (stereo not shown) [Compound 314]	80 to 100	80 to 100			
CCCN(C(=O)C(C)CSC)c1sc(-c2cccnc2)nc1C (stereo not shown) [Compound 286]	80 to 100	80 to 100			
CCSCCC(=O)N(CC)c1sc(-c2cccnc2)nc1C [Compound 322]	< 80	80 to 100			
CCOC(=O)c1cncc(-c2nc(C)c(N(C(=O)OC(C)(C)C)C(=O)C(C)CSC)s2)c1 (stereo not shown) [Compound 155]	< 80	< 80			
CN(C(=O)C(F)(F)F)c1cnc(-c2cccnc2)s1 [Compound 2, 2,2,2-Trifluoro-N-methyl-N-(2-pyridin-3-yl-thiazol-5-yl)-acetamide]	< 80	< 80			
CC(C)C(=O)N(C)c1sc(-c2cccnc2)nc1Cl [Compound 231]	80 to 100	80 to 100			
CCN(C(=O)OC(C)(C)C)c1sc(-c2cncc(F)c2)nc1F [Compound 423]	80 to 100	< 80			
Cc1nc(-c2cccnc2)sc1N1CCCC1=O [Compound 211]	80 to 100	80 to 100			
CCN(C(=O)CCSC(C)C)c1sc(-c2cccnc2)nc1C [Compound 323]	< 80	80 to 100			
Cc1nc(-c2cccnc2)sc1NC(=O)CC1CC1 [Compound 417]	80 to 100	80 to 100			
Cc1nc(-c2cccnc2)sc1N(C)C(=O)[C@H](C)NC(=O)OC(C)(C)C [Compound 194]	80 to 100	80 to 100			

Compound	pest or weed control at 200 ppm ([1]; sweetpotato whitefly-crawler) [%]	pest or weed control at 200 ppm ([2]; green peach aphid) [%]	pest or weed control at 200 ppm ([1]; Abbott's correction formula) [%]	pest or weed control at 200 ppm ([2]; Abbott's correction formula) [%]	other results
CSCC(C)C(=O)Nc1sc(-c2cncc(F)c2)nc1Br (stereo not shown) [Compound 299]	80 to 100	80 to 100			
CCN(C(=O)C(C)(C)CSC)c1sc(-c2cccnc2)nc1C [Compound 237]	80 to 100	80 to 100			
Cc1nc(-c2cccnc2)sc1N(C(=O)OC(C)(C)C)C(C)C [Compound 13, Isopropyl-(4-methyl-2-pyridin-3-yl-thiazol-5-yl)-carbamic acid tert-butyl ester]	80 to 100	80 to 100			
CN(C(=O)CC[S+](C)[O-])c1cnc(-c2cncc(F)c2)s1 (stereo not shown) [Compound 78, N-[2-(5-fluoropyridin-3-yl)-thiazol-5-yl]-3-methanesulfinyl-N-methyl-propionamide]	< 80	80 to 100			
CCN(C(=O)C(C)C[S+](C)[O-])c1sc(-c2cncc(F)c2)nc1C (stereo not shown) [Compound 258]	80 to 100	80 to 100			
CSCC(C)C(=O)N(C(C)=O)c1sc(-c2cccnc2)nc1C (stereo not shown) [Compound 184]	80 to 100	80 to 100			
CSCC(C)C(=O)Nc1sc(-c2cncc(F)c2)nc1Cl (stereo not shown) [Compound 364]	80 to 100	80 to 100			
CSCCC(=O)N(C)c1sc(-c2cncc(F)c2)nc1Br [Compound 441]			80 to 100	80 to 100	
Cc1nc(-c2cccnc2)sc1NC(=O)C(F)(F)C(F)(F)C(F)(F)C(F)(F)F [Compound 428]			< 80	< 80	
CCN(C(=O)c1ccc(C(C)=O)s1)c1sc(-c2cccnc2)nc1Cl [Compound 543]			80 to 100	80 to 100	
CSCCCC(=O)N(C)c1sc(-c2cccnc2)nc1Cl [Compound 371]	80 to 100	80 to 100			
CN(C(=O)CN(C)S(C)(=O)=O)c1sc(-c2cccnc2)nc1Cl [Compound 434]			80 to 100	80 to 100	
CSCC(C)C(=O)N(C(=O)C(C)C)c1sc(-c2cccnc2)nc1C (stereo not shown) [Compound 183]	80 to 100	80 to 100			
CCN(C(=O)C1C[C@@H]1SC)c1sc(-c2cncc(F)c2)nc1Cl (mixture of isomers) [Compound 448]			80 to 100	80 to 100	
CN(C(=O)OCc1ccc([N+](=O)[O-])o1)c1cnc(-c2cncc(F)c2)s1 [Compound 77, [2-(5-Fluoropyridin-3-yl)-thiazol-5-yl]-methyl-carbamic acid 5-nitro-furan-2-ylmethyl ester]	< 80	80 to 100			
Cc1nc(-c2cccnc2)sc1N(C)C(=O)CCS(C)(=O)=O [Compound 95, 3-methanesulfonyl-N-methyl-N-(4-methyl-2-pyridin-3-yl-thiazol-5-yl)-propionamide]	80 to 100	80 to 100			
C[S+]([O-])CCC(=O)Nc1sc(-c2cncc(F)c2)nc1Cl (stereo not shown) [Compound 451]					BEMITA 200 ppm (Corrected % Control, rating) ([1]; Abbott's correction formula): B (Less than 80); MYZUPE 200 ppm (Corrected % Control, rating) ([2]; Abbott's correction formula): A (80-100)
CN(C(=O)C(C)(C)C[S+](C)[O-])c1sc(-c2cccnc2)nc1Cl (stereo not shown) [Compound 269]	80 to 100	80 to 100			
